# Data as given in patent US11801242B2, “Compositions and methods for adjuvant cancer therapeutics” (DUKE UNIVERSITY, priority 2018, dated 2023).
# Tests used:
# [1] = molecular target: T1, REV1 CTD-REV7/3 interaction (Mus musculus, UniProt Q920Q2); experiment: AlphaScreen assay, inhibition of the REV1 CTD-REV7/3 interaction; format: binding; settings: fitting of the inhibition curve, inhibitor 0-25 μM, n=3
# T1 construct: fused on or other part: FLAG tag at the N-terminus (after the TEV site; His10-GB1 solubility tag cleaved off); di-glycine linker between mouse POL kappa RIR K564-N577 and the REV1 CTD; Q9QUG2 (DNA polymerase kappa)
# T1 sequence (Q920Q2 whole entry, looked up, the tested form may be a part): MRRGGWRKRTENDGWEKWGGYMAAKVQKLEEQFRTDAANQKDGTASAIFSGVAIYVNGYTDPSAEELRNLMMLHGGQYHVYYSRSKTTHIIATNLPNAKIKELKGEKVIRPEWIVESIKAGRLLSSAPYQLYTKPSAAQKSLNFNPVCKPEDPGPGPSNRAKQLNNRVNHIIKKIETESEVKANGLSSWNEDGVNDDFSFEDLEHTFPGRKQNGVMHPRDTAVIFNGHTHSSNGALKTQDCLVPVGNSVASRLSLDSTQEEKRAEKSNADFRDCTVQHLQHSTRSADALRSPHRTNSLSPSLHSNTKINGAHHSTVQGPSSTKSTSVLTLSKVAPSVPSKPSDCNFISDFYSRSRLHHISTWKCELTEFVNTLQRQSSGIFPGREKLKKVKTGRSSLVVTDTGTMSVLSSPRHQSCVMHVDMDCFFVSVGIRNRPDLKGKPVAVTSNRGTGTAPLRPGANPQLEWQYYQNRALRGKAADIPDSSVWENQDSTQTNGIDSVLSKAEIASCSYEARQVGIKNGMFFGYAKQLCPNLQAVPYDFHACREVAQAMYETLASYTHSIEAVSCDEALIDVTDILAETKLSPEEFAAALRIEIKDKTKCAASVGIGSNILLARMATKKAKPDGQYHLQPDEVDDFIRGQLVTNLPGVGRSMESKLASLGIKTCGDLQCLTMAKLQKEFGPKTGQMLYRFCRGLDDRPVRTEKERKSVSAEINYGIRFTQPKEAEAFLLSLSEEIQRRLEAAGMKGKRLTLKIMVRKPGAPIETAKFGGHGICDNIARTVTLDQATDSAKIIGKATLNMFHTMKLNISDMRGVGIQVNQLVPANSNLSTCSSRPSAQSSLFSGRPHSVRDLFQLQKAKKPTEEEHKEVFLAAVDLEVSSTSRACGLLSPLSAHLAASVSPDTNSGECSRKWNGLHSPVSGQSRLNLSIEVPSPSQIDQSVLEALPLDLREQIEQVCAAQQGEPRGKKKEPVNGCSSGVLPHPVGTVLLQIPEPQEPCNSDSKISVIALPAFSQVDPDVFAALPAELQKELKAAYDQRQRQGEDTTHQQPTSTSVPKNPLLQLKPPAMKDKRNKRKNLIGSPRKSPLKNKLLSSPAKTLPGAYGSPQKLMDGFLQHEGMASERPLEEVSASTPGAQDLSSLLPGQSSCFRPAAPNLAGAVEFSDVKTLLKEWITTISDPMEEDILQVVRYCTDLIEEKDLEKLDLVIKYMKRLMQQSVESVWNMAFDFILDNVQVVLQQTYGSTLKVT
# Procedure: The FLAG-tagged mouse POL κ-REV1 CTD was diluted in PBS containing 1 mM Tris(2-carboxyethyl)phosphine (TCEP) and 0.005% Tween-20 at a final protein concentration of 1 nM and transferred to individual wells of a 96-well, half-area, white opaque plate (PerkinElmer). Serially diluted RE01 stock solutions in 50% DMSO were added to the wells to yield final inhibitor concentrations of 0-25 μM in 2% DMSO. After 30 min incubation, anti-FLAG Donor Beads (PerkinElmer) were added to a final concentration of 20 ng/μL to individual wells and incubated for an hour. His8-tagged mouse REV7/3 was subsequently added to the reaction mixture to a final concentration of 10 nM and incubated for 30 min. Anti-His Acceptor Beads (PerkinElmer) were added to a final concentration of 20 ng/μL and incubated for an hour.
# Error bars represent standard error (n=3).
# [2] = molecular target: T2, chimeric FLAG-tagged POL κ RIR-REV1 CTD (Mus musculus, UniProt Q920Q2); experiment: In vitro DSS-crosslinking, Western blot; settings: 100 μM RE01 NaOH salt
# T2 construct: the mouse REV1 CTD (F1150-T1249); His10-GB1 (TEV site) (N, cleaved yes); made in house; host or cells: E. coli BL21 Star (DE3)
# T2 sequence (Q920Q2 1150-1249): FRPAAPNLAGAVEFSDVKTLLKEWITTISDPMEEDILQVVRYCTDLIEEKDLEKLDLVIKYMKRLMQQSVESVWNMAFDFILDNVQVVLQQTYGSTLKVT
# Procedure: Samples of the chimeric FLAG-tagged POL κ RIR-REV1 CTD in the presence of 0 μM or 100 μM RE01 were treated with increasing molar ratios of DSS (disuccinimidyl suberate) and analyzed by SDS-PAGE followed by Western blotting with anti-FLAG antibody. Monomer and crosslinked dimer bands are labeled.
# More specifically, chimeric FLAG-tagged POL κ RIR-REV1 CTD in a buffer containing 25 mM HEPES (pH 7.0), 100 mM KCl, and 4 mM TCEP was mixed with either MPD (control) or RE01 NaOH salt in MPD to yield a reaction solution containing 1 μM protein, 5% MPD, and either 0 or 100 μM compound. Appropriate dilutions of DSS in DMSO were added to the reaction mixture to yield DSS-to-protein molar ratios of 0:1, 0.5:1, 1:1, 5:1, 10:1, and 50:1 and a final DMSO concentration of 5% (v/v). The reaction mixture was incubated for 30 min at room temperature and then quenched by addition of 1 M Tris (pH 8.5). The SDS-loading dye containing 4 mM TCEP and 10.8 mM iodoacetamide (to block free cysteines) was added to each reaction mixture, and the samples were loaded onto a Pre-cast 4-20% gradient SDS-PAGE gel (Bio-Rad). The gel samples were transferred to a 0.45 μm nitrocellulose membrane (Bio-Rad) for Western blotting with the anti-FLAG primary antibody M2 (Sigma-Aldrich) and the HRP-conjugated secondary antibody (LI-COR) and imaging with the LI-COR Odyssey system.
# [3] = tested on: KP cells; experiment: CellTiter-Glo Luminescence cell viability assay; format: cell-based, mouse
# Procedure: Relative viability of cells in response to RE01 and DNA-damaging agents was assessed by the CellTiter-Glo Luminescence cell viability assay (Promega) that determines the number of viable cells based on the relative amount of ATP in the culture, which is directly proportional to the number of metabolically active cells. Briefly, 10,000 cells were plated in each well of a 96-well, white, clear flat bottom plate (Corning). Increasing doses of drugs in various combinations-RE01 alone or in combination with DNA-damaging agents-were added into the plates after 24 hours. The RE01 compound was dissolved in 0.1% DMSO and other drugs were dissolved in solvents ascribed by the manufacturer. In all cases, DMSO controls were run in parallel to the drug treatments. Cells were treated with DMSO or cisplatin (0.5 uM) for 24 hours, followed by RE01 (1.5 uM) treatment for additional 24 hours. Cells were washed and allowed to form colonies for 5-7 days and counted after staining with Coomassie brilliant blue R-250 stain. The relative viability of cells was monitored after 24 hours of drug treatment by adding CellTiter-Glo Luminescence stain to an equilibrated plate per the manufacturer's instructions. Luminescence was measured on the plate reader (Tecan Spark 10M). Relative luminescence, which is indicative of relative survival of metabolically active cells, was calculated by dividing the luminescence of treated samples with DMSO controls.
# Viabilities of HT1080 (human fibrosarcoma), A375 (human melanoma), LNCap (human prostate adenocarcinoma), KP (mouse Kras^G12D;p53^−/− lung adenocarcinoma), and AG01522 (human primary fibroblasts) cells were assessed by the Promega CellTiter-Glo Luminescence cell viability assay. Relative luminescence intensities to samples treated with 0 μM RE01 (panel A) or with 0 μM DNA-damaging agents (panels B and C) are plotted. Blue lines represent single agent treatments, and orange lines represent RE01 combination treatments. […]
compound,measurement,setting,value
"CC(C)CC(=O)c1c(Nc2ccc(Cl)cc2Cl)[nH]c2c(Cl)ccc([N+](=O)[O-])c2c1=O [RE01, 8-chloro-2-((2,4-dichlorophenyl)amino)-3-(3-methylbutanoyl)-5-nitroquinolin-4(1H)-one]",IC50,[1],0.78 µM
same,dimerization of the REV1 CTD in solution,[2],promotes the dimerization
same,sensitization to DNA-damaging agent,[3]; RE01 1.5 μM with 4-nitroquinolone 1-oxide (4-NQO),sensitized
same,sensitization to DNA-damaging agent,[3]; RE01 1.5 μM with benzo[a]pyrene diol epoxide (BPDE),sensitized
same,sensitization to DNA-damaging agent,[3]; RE01 1.5 μM with methyl methanesulfonate (MMS),sensitized
